According to patent publication US11234982B2, “Methods for treating ocular surface pain” (NOVARTIS AG, priority 2019, dated 2022):

How the values were obtained:
healthy volunteers [1] = test: Hand immersion test at 49° C. during MAD part; assay type: in vivo, human; conditions: water at 49° C.
Protocol: (§1) Safety assessments: Safety assessments consisted of collecting all adverse events (AEs), serious adverse events (SAEs), including systemic and ocular adverse events, along with their severity and relationship to study drug. Systemic safety assessments included regular monitoring of hematology, blood chemistry and urinalysis performed at study center and regular assessments of physical examination, vital signs (systolic and diastolic blood pressure, pulse rate, and body temperature), ECG, pregnancy and assessments of fertility and hand immersion test at 49° C. during MAD part. Ocular safety assessments included early treatment diabetic retinopathy study (ETDRS) visual acuity, intraocular pressure, slit-lamp biomicroscopy, corneal staining and dilated fundus exam.
For the hand immersion test, all subjects in the treatment cohorts withdrew their hand from water at 49° C. at a time interval between 0 to ≤50 secs.

healthy volunteers [2] = test: First in human study Part 1: SAD, incidence of adverse events; assay type: in vivo; conditions: N = 6
Protocol: (§2) This example describes a first-in-human study of compound I conducted in healthy volunteers. A total of 54 subjects were administered to study medication. Part 1 of the first in human study administered single ascending doses of 0.15%, 1.5%, 2.5% w/v (1 drop) of compound I in an eye drop.
as §1
Inclusion Criteria: • Written informed consent was obtained before any assessment was performed. • Healthy male and female subjects aged 18 to 50 years (inclusive), and in good health as determined by past medical history, physical examination, vital signs, ECG, and laboratory tests at Screening. • At Screening, and Baseline, vital signs (systolic and diastolic blood pressure (BP) and pulse rate) were assessed in the sitting position after the subject had rested for at least 3 minutes and again after 3 minutes in the standing position. […] BMI=Body weight (kg)/[Height (m)]^2 • Subjects who were able to communicate well with the Investigator, to understand and comply with the requirements of the study. • For Part 3, subjects Baseline levels of eye sensitivity were to be in the range of 50 to 60 mm (inclusive) as measured by the Cochet-Bonnet esthesiometer.
History of any chronic eye disease other than refractive error, incipient cataract, strabismic amblyopia, or anisometropic amblyopia. Subjects with a history of acute eye disease (such as infection, corneal abrasion or allergy) within the past 6 months from Screening were eligible if the disease was not active. • Any currently active ocular condition that required use of topical eye drops. • Subjects using continuous positive airway pressure or other sleep apnea devices.

[3] = PRK study: residual compound I in bandage contact lens (BCL); assay type: in vivo, human
Protocol: Compound I was quantified in plasma using a validated LC-MS/MS method; the lower limit of quantification (LLOQ) was 0.05 ng/mL. Concentrations were expressed in ng per mL units. When feasible, bandage contact lenses (BCL) exposed to study drug were collected and analyzed for residual drug exposure after treatment (LLOQ: 5.00 ng/mL in 0.55 mL of extraction fluid, or 2.75 ng/BCL). Concentrations below the LLOQ were reported as “zero” and missing data were labeled as such.
Bandage Contact Lens (BCL) was collected from 40 patients on Day 4 of the dose administration and analyzed for compound I. Values from the three IMP non-compliant patients were excluded from BCL summary statistics, leaving 37 values evaluable, including one value from a patient without available plasma PK. The mean concentration of compound I (CV %) in 0.55 mL extraction fluid was 8500 ng/mL (73.1%), with a wide range of 284 to 22600 ng/mL. These concentrations translate to an estimated mean of 4680 ng/lens (0.55 mL×8500 ng/mL), and a range of 156 to 12400 ng/lens. The amount in BCL was very small in relation to the 0.925 mg dose of compound I administered: mean 0.51%, and range of 0.017% to 1.3% of dose.

[4] = First in human study plasma pharmacokinetics; assay type: in vivo
Protocol: as §2
Part 2 tested multiple ascending doses (MAD) of compound I, administering (i) 1 drop of 0.15%, 1.5%, 2.5%, 4 times daily (every 6 hours) for 7 days or (ii) 1 drop of 2.5%, 8 times daily (every 3 hours) for 7 days (supra-therapeutic dose) as eye drops.
Accumulation of compound I at steady-state was minor (˜1.7-fold) following administration of 0.15%, 1.5% or 2.5% suspension 4 times daily and also minor (˜1.3-fold) following 2.5% 8 times daily for 7 days.

CC(C)c1nc2cc(O)ccc2c(=O)n1-c1ccc(C#N)cc1 [Compound I, 4-(7-hydroxy-2-isopropyl-4-oxo-4H-quinazolin-3-yl)-benzonitrile]
no meaningful change in immersion time: Change in hand immersion time, compound I vs vehicle (healthy volunteers [1]; MAD part)
rapid absorption: Absorption into systemic circulation (plasma PK profile) ([4]; single and multiple topical ocular suspension doses 0.15%, 1.5%, 2.5%)
156 to 12400 ng/lens: Range of amount of compound I per lens ([3]; Day 4)
1 (16.7) nS (%): AEs of Mild severity: nS (%) (healthy volunteers [2]; 0.15% 1 drop) | AEs, Subjects with AEs: nS (%) (subjects with at least one AE) (healthy volunteers [2]; 0.15% 1 drop) | Study drug-related AEs: nS (%) (healthy volunteers [2]; 0.15% 1 drop)
8500 ng/mL: Mean concentration of compound I in BCL extraction fluid ([3]; 0.55 mL extraction fluid, Day 4, 37 values)
0.51 % of dose: Amount in BCL in relation to the 0.925 mg dose, mean ([3]; Day 4)
284 to 22600 ng/mL: Range of concentration of compound I in BCL extraction fluid ([3]; 0.55 mL extraction fluid, Day 4)
0: AEs leading to of study: nE (healthy volunteers [2]; 0.15% 1 drop) | AEs of Moderate severity: nE (healthy volunteers [2]; 0.15% 1 drop) | Serious AEs: nE (healthy volunteers [2]; 0.15% 1 drop) | Study-drug related AEs leading to discontinuation of study: nE (healthy volunteers [2]; 0.15% 1 drop) | AEs leading to of study: nE (healthy volunteers [2]; 1.5% 1 drop) | AEs of Moderate severity: nE (healthy volunteers [2]; 1.5% 1 drop) | Serious AEs: nE (healthy volunteers [2]; 1.5% 1 drop) | Study-drug related AEs leading to discontinuation of study: nE (healthy volunteers [2]; 1.5% 1 drop) | AEs leading to of study: nE (healthy volunteers [2]; 2.5% 1 drop) | AEs of Mild severity: nE (healthy volunteers [2]; 2.5% 1 drop) | AEs of Moderate severity: nE (healthy volunteers [2]; 2.5% 1 drop) | AEs, Subjects with AEs: nE (AE events) (healthy volunteers [2]; 2.5% 1 drop) | Serious AEs: nE (healthy volunteers [2]; 2.5% 1 drop) | Study drug-related AEs: nE (healthy volunteers [2]; 2.5% 1 drop) | Study-drug related AEs leading to discontinuation of study: nE (healthy volunteers [2]; 2.5% 1 drop)
does not alter temperature sensitivity: Temperature sensitivity of the subjects (healthy volunteers [1]; MAD part)
≤ 22 s: Longest hand immersion time of any subject (healthy volunteers [1]; all subjects in the treatment cohorts)
0.017 % of dose: Amount in BCL in relation to the 0.925 mg dose, range ([3]; Day 4)
4680 ng/lens: Estimated mean amount of compound I per lens ([3]; 0.55 mL×8500 ng/mL)
2 (33.3) nS (%): AEs of Mild severity: nS (%) (healthy volunteers [2]; 1.5% 1 drop) | AEs, Subjects with AEs: nS (%) (subjects with at least one AE) (healthy volunteers [2]; 1.5% 1 drop) | Study drug-related AEs: nS (%) (healthy volunteers [2]; 1.5% 1 drop)
3: AEs of Mild severity: nE (healthy volunteers [2]; 0.15% 1 drop) | AEs, Subjects with AEs: nE (AE events) (healthy volunteers [2]; 0.15% 1 drop) | Study drug-related AEs: nE (healthy volunteers [2]; 0.15% 1 drop) | AEs of Mild severity: nE (healthy volunteers [2]; 1.5% 1 drop) | AEs, Subjects with AEs: nE (AE events) (healthy volunteers [2]; 1.5% 1 drop) | Study drug-related AEs: nE (healthy volunteers [2]; 1.5% 1 drop)
0 (0.0) nS (%): AEs leading to of study: nS (%) (healthy volunteers [2]; 0.15% 1 drop) | AEs of Moderate severity: nS (%) (healthy volunteers [2]; 0.15% 1 drop) | Serious AEs: nS (%) (healthy volunteers [2]; 0.15% 1 drop) | Study-drug related AEs leading to discontinuation of study: nS (%) (healthy volunteers [2]; 0.15% 1 drop) | AEs leading to of study: nS (%) (healthy volunteers [2]; 1.5% 1 drop) | AEs of Moderate severity: nS (%) (healthy volunteers [2]; 1.5% 1 drop) | Serious AEs: nS (%) (healthy volunteers [2]; 1.5% 1 drop) | Study-drug related AEs leading to discontinuation of study: nS (%) (healthy volunteers [2]; 1.5% 1 drop) | AEs leading to of study: nS (%) (healthy volunteers [2]; 2.5% 1 drop) | AEs of Mild severity: nS (%) (healthy volunteers [2]; 2.5% 1 drop) | AEs of Moderate severity: nS (%) (healthy volunteers [2]; 2.5% 1 drop) | AEs, Subjects with AEs: nS (%) (subjects with at least one AE) (healthy volunteers [2]; 2.5% 1 drop) | Serious AEs: nS (%) (healthy volunteers [2]; 2.5% 1 drop) | Study drug-related AEs: nS (%) (healthy volunteers [2]; 2.5% 1 drop) | Study-drug related AEs leading to discontinuation of study: nS (%) (healthy volunteers [2]; 2.5% 1 drop)
~1.7 fold: Accumulation at steady-state ([4]; 0.15%, 1.5% or 2.5% suspension 4 times daily)
~1.3 fold: Accumulation at steady-state ([4]; 2.5%, 8 times daily for 7 days)
less than dose-proportional increase: Increase in systemic exposure with dose ([4]; dose from 0.15% to 2.5%)
